{
  "source": "patent US20120107323A1",
  "about": "“KINASE PROTEIN BINDING INHIBITORS” (University of Florida, priority 2009, published 2012)",
  "system": "FAK +/+ and FAK −/− mouse embryonic fibroblast",
  "experiment": "MTT assay on FAK wildtype and null fibroblasts",
  "assay_type": "cell-based",
  "method": "Cell viability (MTT) and CFSE Proliferation assay: Cells were plated in 96-well plates and let adhere overnight. After cell treatment, cell viability was measured by 3-(4,5-dimethylthiazol-2-yl)-2,5-diphenyl tetrazolium bromide (MTT) assay (CellTiter 96® Aqueous, Promega, Madison, Wis.).\nCell proliferation assay: Cell proliferation assay (Promega) using CellTiter 96 aqueous one solution was performed by adding a small amount of the One Solution Reagent directly to culture wells, incubating for 1-4 hours and then recording absorbance at 490 nm with a spectrophotometric plate reader. The quantity of formazan product as measured by the amount of 490 nm absorbance was directly proportional to the number of living cells in culture.\nCell viability and detachment assays: After cells were treated with siRNA transfection, cell viability was measured by 3-(4,5-dimethylthiazol2-yl)-2,5-diphenyl tetrazolium bromide (MTT) assay (CellTiter 96® AQueous, Promega, Madison, Wis.). Briefly, 20 μl of the tetrazolium compound was added to each well. The cells were then incubated at 37° C. for 1 h. The plate was read at 490 nm with a plate reader to determine the viability. In detachment assays, detached and attached cells were harvested separately and counted in a hemocytometer. The percentage of detachment was calculated by dividing the number of detached cells by the total number of cells. Apoptosis assays: After treatment, attached and detached cells were collected, counted and prepared for terminal uridine deoxynucleotidyl transferase (TUNEL) assay by utilizing an APO-BRDU kit (BD Pharmingen, San Diego, Calif.) according to the manufacturer's instructions. Stained cells were analyzed with a fluorescence-activated cell sorting-Calibur flow cytometer (BD Biosciences). Calculation of the percentage of apoptotic cells in the sample was completed with CellQuest software (BD Biosciences). Apoptotic cells were also analyzed by Hoechst staining. Hoechst 33342 ([…]) was added to the fixed cells and the specimens were mounted on glass coverslips. The slides were viewed under the Zeiss microscope for apoptotic nuclei. The percent of apoptotic cells was calculated as the ratio of apoptotic cells to total number of cells.",
  "data": [
    {"molecule": "CSc1ncnc2c1ccn2C1O[C@H](COP(=O)(O)O)[C@@H](O)[C@H]1O", "note": "(stereo partly drawn) [INT2-31, 4-(Methylthio)-7-(5-O-phosphono-D-ribofuranosyl)-{7H-Pyrrolo[2,3-d]pyrimidine}]", "values": [
      {"measurement": "proliferation of FAK+/+ fibroblast cells", "setting": "0.05 μM, 72-hour treatment", "result": "reduced the proliferation"},
      {"measurement": "proliferation of FAK−/− cells", "setting": "0.05 μM, 72-hour treatment", "result": "no effect"},
      {"measurement": "effect on FAK wildtype compared to null fibroblasts", "setting": "MTT, p<0.05", "result": "significantly more sensitive"}
    ]}
  ]
}
